“And” between values parts separate entries of the source, which are not always exact repeats. Identical values can stand only once. Each block holds one compound with its values, some of them ahead of it.
Key:
[1] = target: T1, OATP2B1 (Homo sapiens, UniProt O94956)
T1 sequence (O94956 1-709): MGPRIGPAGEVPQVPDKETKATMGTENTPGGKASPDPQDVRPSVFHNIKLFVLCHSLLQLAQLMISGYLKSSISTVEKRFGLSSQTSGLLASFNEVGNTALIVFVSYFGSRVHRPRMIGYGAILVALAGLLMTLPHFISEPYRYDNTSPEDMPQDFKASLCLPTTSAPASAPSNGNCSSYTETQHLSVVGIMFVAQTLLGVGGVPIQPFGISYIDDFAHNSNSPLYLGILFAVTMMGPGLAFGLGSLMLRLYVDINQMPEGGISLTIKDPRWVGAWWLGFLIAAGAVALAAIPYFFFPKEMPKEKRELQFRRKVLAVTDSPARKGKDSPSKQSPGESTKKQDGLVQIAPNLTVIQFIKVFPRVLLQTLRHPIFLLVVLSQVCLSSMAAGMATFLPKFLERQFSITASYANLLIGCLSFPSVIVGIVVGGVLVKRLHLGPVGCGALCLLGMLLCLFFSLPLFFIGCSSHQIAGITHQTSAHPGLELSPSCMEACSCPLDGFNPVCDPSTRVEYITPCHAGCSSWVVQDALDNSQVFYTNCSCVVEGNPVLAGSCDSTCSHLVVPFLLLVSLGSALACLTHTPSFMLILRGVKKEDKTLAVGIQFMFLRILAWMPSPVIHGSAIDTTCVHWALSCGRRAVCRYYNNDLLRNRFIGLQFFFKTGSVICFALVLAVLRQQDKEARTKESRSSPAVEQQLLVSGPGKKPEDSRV

[2] = target: OATP5A1 (Homo sapiens, UniProt Q9H2Y9); test: Uptake into HEK293 cells stably overexpressing OATP5A1; assay type: in vitro ADME; conditions: for transport by OATP5A1 in HEK293-OATP5A1 cells: pH 7.4
[3] = system: placenta; conditions: ex vivo placental perfusion; cited from earlier work
[4] = target: T2, OAT4 (Homo sapiens, UniProt Q9NSA0); test: Uptake into tetracycline-inducible T-REx-OAT4-293 cells; conditions: for Uptake, Net (transporter-mediated) / Uptake, Transporter-expressing cells: OAT4, 4 μM pravastatin; for Kt / Vmax: OAT4-mediated uptake, physiological pH, 37°C; for Uptake, Control: control cells for OAT4, 4 μM pravastatin
T2 sequence (Q9NSA0 1-550): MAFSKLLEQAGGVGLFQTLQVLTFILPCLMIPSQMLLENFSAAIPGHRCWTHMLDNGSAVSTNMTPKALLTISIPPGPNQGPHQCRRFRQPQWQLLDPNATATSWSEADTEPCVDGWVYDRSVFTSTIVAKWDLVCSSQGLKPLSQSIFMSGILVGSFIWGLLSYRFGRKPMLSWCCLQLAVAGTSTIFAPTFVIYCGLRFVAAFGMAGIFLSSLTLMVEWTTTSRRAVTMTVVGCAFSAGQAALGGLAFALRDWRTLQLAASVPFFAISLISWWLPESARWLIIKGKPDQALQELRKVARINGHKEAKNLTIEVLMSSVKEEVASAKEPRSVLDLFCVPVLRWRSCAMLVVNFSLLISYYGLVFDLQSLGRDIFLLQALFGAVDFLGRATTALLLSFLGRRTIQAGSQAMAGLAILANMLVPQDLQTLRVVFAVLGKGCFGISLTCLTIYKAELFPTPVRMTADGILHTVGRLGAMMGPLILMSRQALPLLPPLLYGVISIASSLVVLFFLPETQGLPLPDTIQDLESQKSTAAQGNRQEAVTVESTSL

[5] = system: OAT4; conditions: S2 cells expressing OAT4, single component saturation kinetics; ref 20 (Nakagomi-Hagihara et al, 2007); cited from earlier work
[6] = target: T2, OAT4; test: OAT4-mediated efflux of preloaded pravastatin from T-REx-OAT4-293 cells; assay type: in vitro ADME
[7] = pregnant women taking 10 mg daily dose; cited from earlier work
[8] = target: T3, OATP1A2 (Homo sapiens, UniProt P46721); test: Uptake into HEK293 cells transiently overexpressing OATP1A2; assay type: in vitro ADME
T3 sequence (P46721 1-670): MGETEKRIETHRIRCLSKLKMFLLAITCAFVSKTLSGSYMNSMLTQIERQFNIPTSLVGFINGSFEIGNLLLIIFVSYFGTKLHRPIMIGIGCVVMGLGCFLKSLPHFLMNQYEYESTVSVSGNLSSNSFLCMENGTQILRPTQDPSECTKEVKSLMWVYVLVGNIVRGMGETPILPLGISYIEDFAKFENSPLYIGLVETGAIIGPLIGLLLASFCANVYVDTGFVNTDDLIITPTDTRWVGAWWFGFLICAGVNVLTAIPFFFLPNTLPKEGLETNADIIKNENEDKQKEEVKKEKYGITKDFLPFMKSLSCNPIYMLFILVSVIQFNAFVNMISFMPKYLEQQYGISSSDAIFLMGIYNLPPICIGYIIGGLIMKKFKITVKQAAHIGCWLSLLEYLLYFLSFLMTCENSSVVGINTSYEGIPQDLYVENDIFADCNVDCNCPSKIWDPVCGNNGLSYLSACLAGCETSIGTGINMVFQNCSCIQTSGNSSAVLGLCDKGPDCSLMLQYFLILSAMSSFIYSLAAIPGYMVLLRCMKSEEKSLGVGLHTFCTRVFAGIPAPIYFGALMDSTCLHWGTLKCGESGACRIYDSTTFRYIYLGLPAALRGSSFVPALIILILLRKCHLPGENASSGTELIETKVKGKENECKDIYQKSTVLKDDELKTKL

[9] = system: placental BM vesicles; test: Glutarate-stimulated uptake of pravastatin by placental BM vesicles; assay type: in vitro ADME, human
[10] = target: T4, OATP2A1 (Homo sapiens, UniProt Q92959); test: Uptake into HEK293 cells stably overexpressing OATP2A1; assay type: in vitro ADME; conditions: 1 min
[11] = system: placental AM vesicles; test: Glutarate-stimulated uptake of pravastatin by placental AM vesicles; assay type: in vitro ADME, human; conditions: 1 μM [3H]Pravastatin, 37°C
[12] = target: T4, OATP2A1; conditions: 2 μM pravastatin
[13] = target: T2, OAT4; test: Effect of E3S on OAT4-mediated uptake of pravastatin; assay type: in vitro ADME; conditions: E3S (200 μM), 2 μM pravastatin
[14] = system: placental BM vesicles; conditions: cited from earlier work
[15] = GA (glutaric acid preload), 30 s
[16] = higher concentration range (low affinity)
[17] = OATP1A2-mediated uptake at pH 6.0
[18] = OATP1A2-mediated uptake, physiological pH, 37°C, 30 s
[19] = OATP2A1-mediated uptake, physiological pH, 37°C

OATP5A1, sequence (Q9H2Y9 whole entry, the tested form may be a part): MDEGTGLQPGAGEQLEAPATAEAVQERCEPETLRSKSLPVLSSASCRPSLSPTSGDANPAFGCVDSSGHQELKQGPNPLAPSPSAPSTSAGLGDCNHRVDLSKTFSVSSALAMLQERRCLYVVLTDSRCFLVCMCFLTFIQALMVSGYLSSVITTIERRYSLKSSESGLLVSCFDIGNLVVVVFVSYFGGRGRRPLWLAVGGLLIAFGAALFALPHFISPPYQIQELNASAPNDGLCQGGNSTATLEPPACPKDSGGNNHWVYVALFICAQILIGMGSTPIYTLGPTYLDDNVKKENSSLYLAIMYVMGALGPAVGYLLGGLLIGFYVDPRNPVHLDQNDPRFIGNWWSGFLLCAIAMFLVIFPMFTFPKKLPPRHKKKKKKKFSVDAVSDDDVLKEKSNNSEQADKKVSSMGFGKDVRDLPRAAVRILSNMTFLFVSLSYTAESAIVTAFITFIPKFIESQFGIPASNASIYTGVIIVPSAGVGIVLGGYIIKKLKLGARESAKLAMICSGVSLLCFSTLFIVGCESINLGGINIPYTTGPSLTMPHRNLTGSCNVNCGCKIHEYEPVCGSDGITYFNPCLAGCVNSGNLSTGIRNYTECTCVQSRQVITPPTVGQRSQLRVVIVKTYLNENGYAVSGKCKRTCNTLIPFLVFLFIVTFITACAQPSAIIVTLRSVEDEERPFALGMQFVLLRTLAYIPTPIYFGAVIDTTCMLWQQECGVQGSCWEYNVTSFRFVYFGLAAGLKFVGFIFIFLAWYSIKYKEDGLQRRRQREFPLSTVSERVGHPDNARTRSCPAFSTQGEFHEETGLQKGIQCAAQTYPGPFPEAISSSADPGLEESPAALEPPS

Uptake, Transporter-expressing cells ([1]; OATP2B1, 0.75 μM [3H]Pravastatin, 37°C, 1 min, neutral pH): 0.71 ± 0.13 pmol/mg protein/min
Uptake, Net (transporter-mediated) ([1]; OATP2B1, 0.75 μM [3H]Pravastatin, 1 min, neutral pH): 0.10 ± 0.16 pmol/mg protein/min
Uptake, Control ([1]; control cells for OATP2B1, 0.75 μM [3H]Pravastatin, 1 min, neutral pH): 0.61 ± 0.13 pmol/mg protein/min
Uptake, Transporter-expressing cells ([2]; OATP5A1, 10 μM pravastatin, 37°C, 1 min, neutral pH): 1.85 ± 0.18 pmol/mg protein/min
Uptake, Net (transporter-mediated) ([2]; OATP5A1, 10 μM pravastatin, 1 min, neutral pH): 0.23 ± 0.01 pmol/mg protein/min
Uptake, Control ([2]; control cells for OATP5A1, 10 μM pravastatin, 1 min, neutral pH): 1.62 ± 0.18 pmol/mg protein/min
Uptake, Net (transporter-mediated) ([4]; 30 s, chloride, no glutarate preload): 2.86 ± 0.27 pmol/mg protein/min
Uptake, Net (transporter-mediated) ([4]; Cl-free uptake buffer, 30 s): 7.15 ± 0.59 pmol/mg protein/min
Uptake, Transporter-expressing cells ([4]; Cl-free uptake buffer, 30 s): 8.66 ± 0.80 ^*^, # pmol/mg protein/min
Uptake, Net (transporter-mediated) [4, 15]: 5.17 ± 0.84 pmol/mg protein/min
Uptake, Transporter-expressing cells [4, 15]: 7.04 ± 0.97 ^*^, # pmol/mg protein/min
Kt [4, 16]: 295 ± 99 µM and 295 ± 99.0 µM
Vmax [4, 16]: 345 ± 54.8 pmol/mg protein*min^−1
Vmax ([4]; lower concentration range (high-affinity)): 42.0 ± 93.4 pmol/mg protein*min^−1
Kt ([4]; lower concentration range (high-affinity), 30 s): 30.5 ± 75.0 µM
Uptake, Control ([4]; Cl-free uptake buffer, 30 s): 1.51 ± 0.24 pmol/mg protein/min
Uptake, Control [4, 15]: 1.87 ± 0.25 pmol/mg protein/min
remaining preloaded pravastatin ([6]; OAT4-expressing cells, chloride-free condition, 60 s efflux, preload 4 μM): 39 ± 2%
estimated Ke of the pravastatin efflux ([6]; chloride-free condition, OAT4-expressing cells): 2.1 ± 0.5 10^−2s^−1
estimated Ke of the pravastatin efflux ([6]; chloride-free condition, control cells): 3.6 ± 2.1 10^−2s^−1
estimated Ke of the pravastatin efflux ([6]; presence of extracellular chloride, OAT4-expressing cells): 2.6 ± 0.6 10^−2s^−1
estimated Ke of the pravastatin efflux ([6]; presence of extracellular chloride, control cells): 3.0 ± 1.0 10^−2s^−1
Uptake, Net (transporter-mediated) ([8]; OATP1A2, 0.75 μM [3H]Pravastatin, 30 s, neutral pH): 1.06 ± 0.32 pmol/mg protein/min
Uptake, Transporter-expressing cells ([8]; OATP1A2, 0.75 μM [3H]Pravastatin, 37°C, 30 s, neutral pH): 1.73 ± 0.31 pmol/mg protein/min
apparent Kt [8, 17]: 23.6 ± 2.87 µM
apparent Vmax [8, 17]: 361 ± 29.3 pmol/mg protein*min^−1
Kt [8, 18]: 1.60 ± 0.97 µM
Vmax [8, 18]: 4.08 ± 0.72 pmol/mg protein*min^−1
Uptake, Control ([8]; control cells for OATP1A2, 0.75 μM [3H]Pravastatin, 30 s, neutral pH): 0.66 ± 0.15 pmol/mg protein/min
net (glutarate-dependent) uptake into BM vesicles at 4°C ([9]; 4°C, 0.5-2 μM): negligible
glutarate-stimulated uptake into BM vesicles, concentration dependence ([9]; two-fold increase of substrate from 1 μM to 2 μM, 37°C): proportional increase
Uptake, Transporter-expressing cells ([10]; OATP2A1, 1 μM pravastatin, 37°C, neutral pH): 0.46 ± 0.06 pmol/mg protein/min
Kt [10, 19]: 188 ± 109 µM
Vmax [10, 19]: 73.8 ± 19.2 pmol/mg protein*min^−1
Uptake, Control ([10]; control cells for OATP2A1, 1 μM pravastatin, neutral pH): 0.26 ± 0.06 pmol/mg protein/min
glutarate-stimulated uptake into AM vesicles [11]: insignificant
Structure (SMILES): CC[C@H](C)C(=O)O[C@H]1C[C@H](O)C=C2C=C[C@H](C)[C@H](CC[C@@H](O)C[C@@H](O)CC(=O)O)[C@H]21 [Pravastatin]
OATP2B1-mediated uptake ([1]; pH 7.4): did not detect any OATP2B1-mediated uptake
transport by OATP5A1 in HEK293-OATP5A1 cells [2]: none of the substrates tested, namely pravastatin, E3S, PE2 and fluorescein were found to be transported
clearance index, direction of transfer [3]: higher in the fetal-to-maternal direction than in the maternal-to-fetal direction
drug crossing the placenta from the maternal to fetal direction [3]: 18 ± 4%
Kt [5]: 257 µM
steady state plasma concentrations [7]: nanomolar range
trans-stimulatory effect of glutarate on the uptake into placental BM vesicles (increase) ([9]; BM vesicles, glutarate preload, Fig 1A): 18%
glutarate-stimulated uptake into BM vesicles ([9]; pravastatin concentrations below 1 μM, 37°C): did not detect any glutarate-stimulated uptake

decrease of the net, OATP2A1-dependent, uptake of pravastatin ([12]; diclofenac 20 μM): 50%
Structure (SMILES): O=C(O)Cc1ccccc1Nc1c(Cl)cccc1Cl [diclofenac]
effect on uptake of pravastatin into OATP2A1-expressing cells ([12]; diclofenac 200 μM): did not result in a statistically significant decrease

Structure (SMILES): CCCCC[C@H](O)/C=C/[C@H]1[C@H](O)CC(=O)[C@@H]1C/C=C\CCCC(=O)O [PE2, Prostaglandin-E2]
transport by OATP5A1 in HEK293-OATP5A1 cells [2]: none of the substrates tested, namely pravastatin, E3S, PE2 and fluorescein were found to be transported

Structure (SMILES): O=C1OC2(c3ccc(O)cc3Oc3cc(O)ccc32)c2ccccc21 [fluorescein, sodium fluorescein]
transport by OATP5A1 in HEK293-OATP5A1 cells [2]: none of the substrates tested, namely pravastatin, E3S, PE2 and fluorescein were found to be transported

inhibition of OAT4-mediated uptake of pravastatin [13]: complete inhibition
Structure (SMILES): C[C@]12CC[C@@H]3c4ccc(OS(=O)(=O)O)cc4CC[C@H]3[C@@H]1CCC2=O [E3S, estrone-3-sulfate]

Structure (SMILES): C[C@]12CC[C@H](O)CC1=CC[C@@H]1[C@@H]2CC[C@]2(C)C(=O)[C@H](O)C[C@@H]12 [16α-hydroxydehydroepiandrosterone]
increase of the uptake into placental BM vesicles by glutarate trans-stimulation [14]: 56%

Structure (SMILES): CCCc1nc(C(C)(C)O)c(C(=O)O)n1Cc1ccc(-c2ccccc2-c2nnn[nH]2)cc1 [olmesartan]
increase of the uptake into placental BM vesicles by glutarate trans-stimulation [14]: 33%
